Experimental data taken from PMC11054337, “Identification of Leishmania donovani PEX5-PTS1 Interaction Inhibitors through Fluorescence Polarization-Based High-Throughput Screening” (Molecules, 2024).
Where “and” joins values, the source holds several entries; their conditions need not be identical. Identical values can stand only once. Like-named read-outs stand apart in the source and are kept apart here. No end group written: not given here.

What was measured:
T. brucei BSF = T. brucei BSF growth inhibition (resazurin); assay type: cell-based, Trypanosoma brucei; details: for IC50: Trypanosoma brucei, blood stream form, 72 h exposure, three independent replicates, read-out: T. brucei IC50 ± SD; for Growth inhibition of T. brucei (in words): BSF
Procedure: (§1) All the restriction enzymes used in this study were sourced from New England BioLabs (240 County Road Ipswich, Ipswich, MA, USA). The PTS1 peptides, both unlabeled and fluorescently labeled at the N-terminus with fluorescein isothiocyanate (FITC), were purchased from Peptron (Daejeon, Republic of Korea). All the inhibitors were purchased from Enamine (Kyiv, Ukraine). L. donovani strain MHOM/SD/62/1S-CL2D and L. major strain LV39 (MRHO/Sv/59/P) were cultured in their extracellular promastigote forms. The parasite was cultured at 28 °C using M199 medium (Sigma-Aldrich, St. Louis, MO, USA) supplemented with 40 mM HEPES, 0.1 mM adenine, 0.0001% biotin, and 4.62 mM NaHCO3, along with additional supplements of hemin and xanthine. The T. brucei brucei Lister strain 427 in its bloodstream form (BSF) was cultured at 37 °C in a controlled atmosphere consisting of 5% CO2 in HMI-9 medium enriched with 10% fetal bovine serum (FBS), 100 µg/mL penicillin, and 100 µg/mL streptomycin. The parasites were maintained through only 10 passages for this study.
(§2) Briefly, the assays were conducted in 384-well plates, each well was seeded with 5 × 10^4 parasites, and the compounds were exposed for 72 h. The compounds were tested in dose-diluted format, starting from 100 μM with a two-fold dilution across 10 points. Subsequently, resazurin was added to each well to achieve a final concentration of 200 μM. The plates were then incubated for an additional 5 h before fixation. The assay results were recorded using a Victor3 plate reader (PerkinElmer, Shelton, CT, USA). For the assessment against L. donovani intracellular amastigotes, phorbol 12-myristate 13-acetate-treated THP-1 cells were seeded at 0.8 × 10^4 cells per well in a 384-well plate in RPMI-1640 complete medium supplemented with 10% FBS. After 48 h, the infection was carried out using L. donovani promastigotes with a multiplicity of infection of 10:1. The infected cells were treated with compounds for 72 h, then the cells and parasites were washed, stained with 5 µM 4′,6-diamidino-2-phenylindole (DAPI), and fixed with 4% paraformaldehyde. Images were acquired using Operetta® CLS™ (PerkinElmer, Shelton, CT, USA), and the numbers of parasites and host cells were quantified using Columbus™ software version 2.8 (PerkinElmer, Shelton, CT, USA).
(§3) All half-maximal inhibitory concentration (IC50) values were determined based on data obtained from three independent experiments. The dose–response curves were generated and analyzed using GraphPad Prism 6 software (GraphPad Software, San Diego, CA, USA). For the analysis, a sigmoidal dose–response equation was employed, incorporating a variable hill slope option.

LdPEX5-PTS1 interaction = target: T1, LdPEX5-PTS1 interaction (Leishmania donovani, UniProt A0A3S7X906); assay: biochemical; assay type: binding; details: 1 µM LdPEX5, 5 nM FITC-SGAGSKL
T1 construct: encoding LdPEX5CT, corresponding to 322 amino acids (AF198051.1: 303-625), was synthesized; 6xHis (pET15b) (N); made in house; host or cells: Escherichia coli BL21 (DE3)
Procedure: HTS using FP was conducted to identify inhibitors of the LdPEX5-PTS1 interaction. The screening utilized an in-house compound library comprising 51,406 compounds with diverse structural profiles. All compounds were initially solubilized in 100% DMSO with a concentration of 2 mM, and the final testing concentration in the assay was set at 20 μM. DMSO served as the negative control, while unlabeled PTS1 peptide (TRYPAKL) was used as the positive control. The assay mixture included FITC-SGAGSKL peptide and LdPEX5 at final concentrations of 5 nM and 1 μM, respectively. The reaction plates with compounds were incubated for 1 h at room temperature before FP signal detection. Single-point inhibition assays were performed, and the Z’ factor was employed to assess the quality of the assay. The Z’ factor was calculated using the formula Z′ = 1 − 3(σp + σn)/(μp − μn), where σp and σn are the standard deviations of the positive and negative controls, respectively, and μp and μn represent their respective mean values.
as §3

[1] = test system: L. donovani promastigotes; assay: L. donovani promastigote growth inhibition (resazurin); assay type: cell-based, Leishmania donovani; details: for IC50: 72 h exposure, three independent replicates, read-out: L. donovani IC50 ± SD
Procedure: as §1, §2, §3

L. major promastigotes = assay: L. major promastigote growth inhibition (resazurin); assay type: cell-based, Leishmania major; details: for IC50: 72 h exposure, three independent replicates, read-out: L. major IC50 ± SD
Procedure: as §1, §2, §3

[2] = test system: L. donovani intracellular amastigotes; assay: L. donovani intracellular amastigote assay in THP-1 cells (image-based); assay type: cell-based, Leishmania donovani; details: infected THP-1 cells, 72 h treatment
Procedure: as §2

[3] = 1 h, three independent replicates, read-out: LdPEX5-PTS1 Inhibition IC50 ± SD
[4] = IC50 of unlabeled PTS1 peptides, peptide from 60 µM half dilution 10 points

T1 sequence (A0A3S7X906 entry or part of it): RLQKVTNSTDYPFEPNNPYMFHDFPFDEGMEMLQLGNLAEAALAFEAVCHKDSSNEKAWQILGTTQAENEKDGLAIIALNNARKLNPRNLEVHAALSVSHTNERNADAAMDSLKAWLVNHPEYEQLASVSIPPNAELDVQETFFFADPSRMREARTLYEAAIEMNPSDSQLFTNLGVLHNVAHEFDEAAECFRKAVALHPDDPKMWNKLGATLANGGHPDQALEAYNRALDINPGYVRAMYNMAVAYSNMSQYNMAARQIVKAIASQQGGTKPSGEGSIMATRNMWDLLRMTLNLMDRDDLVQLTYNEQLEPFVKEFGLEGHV

IC50 (T. brucei BSF)	IC50 (LdPEX5-PTS1 interaction; [3])	IC50 ([1]; Leishmania donovani, 72 h)	IC50 (L. major promastigotes; Leishmania major, 72 h)	Molecule	also measured
> 50 µM	25.2 ± 0.89 µM	> 50 µM	> 50 µM	Cc1cc(C(=O)Nc2cc(C(N)=O)ccc2N2CCCCC2)c2c(C)noc2n1 [P17]	–
> 50 µM	~16 µM and 16.9 µM	> 50 µM	> 50 µM	Cc1ccc(C(=O)Nc2nc3ccccc3nc2N2CCCC2)cc1S(C)(=O)=O [P16]	Growth inhibition of T. brucei (in words) (T. brucei BSF): not able to inhibit the growth; Growth inhibition of L. donovani (in words) [1]: not able to inhibit the growth; Growth inhibition of L. major (in words) (L. major promastigotes): not able to inhibit the growth
3.06 ± 0.38 µM	16.5 ± 0.79 µM	19.2 ± 2.65 µM	12.2 ± 1.36 µM	CNc1ccc(Nc2ncnc3sccc23)cn1 [P20, N^2-methyl-N^5-(thieno [2,3-d]pyrimidin-4-yl)pyridine-2,5-diamine]	Growth inhibition of T. brucei (in words) (T. brucei BSF): inhibitory activity; Growth inhibition of L. donovani (in words) [1]: inhibitory activity; IC50 [1]: 12.2 ± 1.36 µM; Activity against intracellular amastigote form of Leishmania [2]: inactive; Growth inhibition of L. major (in words) (L. major promastigotes): inhibitory activity; IC50 (L. major promastigotes): 19.2 ± 2.65 µM
> 50 µM	23.6 ± 0.86 µM	> 50 µM	> 50 µM	CN(C)c1ccc(Nc2cnc3ccccc3n2)cn1 [P02]	–
> 50 µM	~16 µM and 16.2 µM	3.3 ± 0.23 µM	> 50 µM	O=C(Nc1nc2ccccc2nc1N1CCCC1)c1ccc(Cn2cccn2)cc1 [P10, 4-((1H-pyrazol-1-yl)methyl)-N-(3-(pyrrolidin-1-yl)quinoxalin-2-yl)]	Growth inhibition of T. brucei (in words) (T. brucei BSF): not active; Activity against intracellular amastigote form of Leishmania [2]: inactive; Growth inhibition of L. major (in words) (L. major promastigotes): not active
> 50 µM	24.5 ± 1.05 µM	> 50 µM	> 50 µM	CCc1ncc2c(n1)CN(Cc1cc(=O)n3cccc(C)c3n1)CC2 [P21]	–
> 50 µM	3.89 ± 0.15 µM	> 50 µM	> 50 µM	COc1ccc(NC(=O)C2(S(=O)(=O)c3ccc(Cl)cc3)CCCC2)cn1 [P08, 1-((4-chlorophenyl)sulfonyl)-N-(6-methoxypyridin-3-yl)cyclopentane-1-carboxamide]	–
12.1 ± 2.19 µM	14.6 ± 0.76 µM	> 50 µM	> 50 µM	Cn1ncc(-c2nc3cc(S(N)(=O)=O)ccc3[nH]2)n1 [P04, 2-(2-methyl-2H-1,2,3-triazol-4-yl)-1H-benzo[d]imidazole-5-sulfonamide]	–
> 50 µM	16 ± 0.96 µM	> 50 µM	> 50 µM	CCOc1ccc(NC2CCN(Cc3cscn3)CC2)cn1 [P28]	–

Further lines, the molecule ahead of its results:

Molecule	IC50 (T. brucei BSF)	IC50 (LdPEX5-PTS1 interaction; [3])	IC50 ([1]; Leishmania donovani, 72 h)	IC50 (L. major promastigotes; Leishmania major, 72 h)	also measured
SGAGSKL [SGAGSKL, reference compound]	–	–	–	–	IC50 (LdPEX5-PTS1 interaction; [4]): 10.7 µM
CCCCCCCCCCCCCCCCOP(=O)([O-])OCC[N+](C)(C)C [Miltefosine, reference compound]	–	–	–	7.37 ± 1.67 µM	–
TRYPAKL [TRYPAKL, reference compound]	–	–	–	–	IC50 (LdPEX5-PTS1 interaction; [4]): 3.61 µM
ARLASKV [ARLASKV, reference compound]	–	–	–	–	IC50 (LdPEX5-PTS1 interaction; [4]): > 60 µM
C[C@@H]1[C@H](O)[C@@H](C)/C=C/C=C/C=C/C=C/C=C/C=C/C=C/[C@H](O[C@@H]2O[C@H](C)[C@@H](O)[C@H](N)[C@@H]2O)C[C@@H]2O[C@](O)(C[C@@H](O)C[C@@H](O)[C@H](O)CC[C@@H](O)C[C@@H](O)CC(=O)O[C@H]1C)C[C@H](O)[C@H]2C(=O)O [Amphotericin B, reference compound]	–	–	0.42 ± 0.03 µM	–	–
N=C(N)c1ccc(OCCCCCOc2ccc(C(=N)N)cc2)cc1 [Pentamidine, reference compound]	0.69 ± 0.05 µM	–	–	–	–
